This is an account of results in US6180651A, “Diarylmethylidenefuran derivatives, processes for their preparation and their uses in therapeutics” (Bristol-Myers Squibb, priority 1996, dated 2001).

Where only a bound is given, the exact number is not on record here.

One data set relates to kaolin arthritis. The data set can be described thus: analgesic activity, kaolin arthritis test. The data set is classed as in vivo. Conditions: rat, oral; dose which induces 50% decrease of the maximum quotation in the control batch; read-out: Analgesic activity DE50. Here is the method:
(§1) The anti-inflarnmatory activity of the compounds of the Examples was evaluated by the carrageenin oedema method and the analgesic activity was evaluated by the kaolin arthritis method.
The analgesic activity is evaluated in the rat by the kaolin arthritis test. Thirty minutes after the intra-articular administration of 10% aqueous kaolin suspension, the product is administered orally at a rate of 1 ml/100 g (n=10 animals per dose). The results are expressed as DE50, the dose in mg/kg which induces 50% decrease of the maximum quotation in the control batch, calculated by linear regression.

Data set [1] is described as follows: gastric tolerance, ulceration index. Also noted: species or system Charles River rats of the CD strain. Conditions: rat, in vivo, po. The procedure: The gastric tolerance is studied on Charles River rats of the CD strain weighing between 110 and 150 g. The animals are placed on a water diet 24 h prior to oral administration of the product or the vehicle only at a rate of 1 ml/100 g (n=6 animals per dose). Six hours after administration,the animals are sacrificed and the stomachs are removed and opened along the large curvature. The number of haemorrhagic puncta and sulci per stomach, identified macroscopically, makes it possible to establish an ulceration index (0: no lesion, 1: 1 to 2 lesions, 2: 3 to 4 lesions, 3: 5 to 8 lesions, 4: 9 to 16 lesions, 5: more than 17 lesions) and to estimate the 50% ulcerigenic dose (UD50 =dose inducing 4 to 5 lesions, expressed in mg/kg).

A further data set concerns the target T1, COX-2 (Ovis aries, UniProt P79208).
T1 construct: purified enzyme from ewe placenta; from tissue; host or cells: ewe placenta (purified enzyme)
T1 sequence (P79208 17-603): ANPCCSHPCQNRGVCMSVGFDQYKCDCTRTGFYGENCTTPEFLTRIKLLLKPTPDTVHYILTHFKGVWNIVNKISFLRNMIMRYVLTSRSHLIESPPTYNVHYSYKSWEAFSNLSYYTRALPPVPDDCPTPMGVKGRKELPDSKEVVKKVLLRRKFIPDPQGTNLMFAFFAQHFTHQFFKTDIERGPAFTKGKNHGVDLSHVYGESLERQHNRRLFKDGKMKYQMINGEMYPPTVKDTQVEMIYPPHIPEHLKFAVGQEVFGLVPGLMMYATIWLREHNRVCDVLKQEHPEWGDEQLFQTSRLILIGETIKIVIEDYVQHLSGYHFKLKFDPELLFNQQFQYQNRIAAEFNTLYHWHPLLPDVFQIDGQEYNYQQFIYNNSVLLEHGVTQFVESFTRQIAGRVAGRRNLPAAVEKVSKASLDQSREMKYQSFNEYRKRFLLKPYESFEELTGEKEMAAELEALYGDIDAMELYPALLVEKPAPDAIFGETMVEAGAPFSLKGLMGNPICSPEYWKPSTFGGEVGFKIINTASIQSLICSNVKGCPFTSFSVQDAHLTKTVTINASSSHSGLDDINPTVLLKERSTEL
The data set can be described thus: inhibition of COX-2 enzymatic activity (PGE2 by EIA). The data set is classed as biochemical, ewe. Conditions: for IC50: purified enzyme from ewe placenta, arachidonic acid 4 μM, n=1 to 4 determinations; for Selectivity COX-1/COX-2 ratio: ratio of IC50 COX-1 / IC50 COX-2. Here is the method: (§2) Inhibition of the COX-1 and COX-2 Enzymatic Activities The test molecule is preincubated for 10 minutes at 25° C. with 2 U of COX-1 (purified enzyme from ram seminal vesicles) or 1 U of COX-2 (purified enzyme from ewe placenta). Arachidonic acid (6 μM for COX-1, 4 μM for COX-2) is added to the reaction medium and incubation is carried out for 5 minutes at 25° C. When incubation has ended, the enzymatic reaction is stopped by the addition of 1 N HCl and the PGE2 produced is determined by EIA. The results are expressed as IC50, the concentration in nM which corresponds to 50% inhibition of the maximal enzymatic activity on the COX-1 and COX-2 (n=1 to 4 determinations).

A further data set concerns carrageenin oedema. Briefly: anti-inflammatory activity, carrageenin oedema test. The data set is classed as in vivo. Particulars: rat, oral; dose which induces 50% decrease in the volume of the oedema; read-out: Anti-inflammatory activity ID50. Here is the method: as §1
Anti-inflammatory Activity:
The anti-inflammatory activity is evaluated in the rat by the carrageenin oedema test. The product is administered orally at a rate of 2.5 ml/100 g (n=6 animals per dose) 2 h 30 min after oral hyperhydration (2.5 m/100 g); one hour after administration of the product, the oedema is induced by the plantar subcutaneous injection of 2% aqueous carrageenin solution. The results are expressed as the ID50, the dose in mg/kg which induces 50% decrease in the volume of the oedema, calculated by linear regression using the maximum oedema volume obtained for each product tested.
Background: Carrageenan injected into the paw causes an acute inflammation.

The target in another data set is T2, COX-1 (Ovis aries, UniProt P05979).
T2 construct: purified enzyme from ram seminal vesicles; from tissue; host or cells: ram seminal vesicles (purified enzyme)
T2 sequence (P05979 25-600): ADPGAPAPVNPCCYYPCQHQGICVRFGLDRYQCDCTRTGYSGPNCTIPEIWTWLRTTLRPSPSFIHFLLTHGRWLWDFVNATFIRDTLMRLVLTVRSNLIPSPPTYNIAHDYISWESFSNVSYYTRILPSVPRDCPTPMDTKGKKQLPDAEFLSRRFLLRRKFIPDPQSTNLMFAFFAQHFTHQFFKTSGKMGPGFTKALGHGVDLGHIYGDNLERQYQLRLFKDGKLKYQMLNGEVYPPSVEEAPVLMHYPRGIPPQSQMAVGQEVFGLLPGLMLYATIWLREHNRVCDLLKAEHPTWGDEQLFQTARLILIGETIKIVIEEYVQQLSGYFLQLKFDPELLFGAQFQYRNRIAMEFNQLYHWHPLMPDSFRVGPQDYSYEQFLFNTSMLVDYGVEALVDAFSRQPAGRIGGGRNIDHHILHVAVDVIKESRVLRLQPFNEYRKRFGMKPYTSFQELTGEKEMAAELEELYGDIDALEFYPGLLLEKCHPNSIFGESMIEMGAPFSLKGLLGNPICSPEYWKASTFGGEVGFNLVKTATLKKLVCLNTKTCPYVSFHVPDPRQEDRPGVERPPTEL
Briefly: inhibition of COX-1 enzymatic activity (PGE2 by EIA). The data set is classed as biochemical. Conditions: purified enzyme from ram seminal vesicles; arachidonic acid 6 μM; n=1 to 4 determinations. Here is the method: as §2

For the next data set, the system named is apc/min mice. The data set can be described thus: chemoprevention assay in apc/min mice (model of human familial adenomatous polyposis). The data set is classed as in vivo. Conditions: 1.8 mg/kg/day in the feed. The procedure:
Chemoprevention Assays in Mice:
The test molecule is given in the feed to apc/min mice, a mouse model of human familial adenomatous polyposis, at 1.8 mg/kg/day for 240 days. The viability and the average tumor burden in animals receiving the test compound is compared to that in control animals.

Regarding `NS(=O)(=O)c1ccc(/C(=C2\CCOC2=O)c2ccc(Cl)cc2)cc1` [125 (Z isomer), (Z)-4-[(4-chlorophenyl)-(2-oxo-dihydro-furan-3-ylidene)-methyl]benzenesulphonamide], the ED50 in the data set on kaolin arthritis amounted to 8.5 mg/kg; in the data set with carrageenin oedema, 1.8 mg/kg. The TD50 at 6 h in data set [1] is > 1000 mg/kg. The figures for the IC50 on COX-2 and at COX-1 were 60 nM and 2.52 ± 1.31 µM, respectively. The “Selectivity COX-1/COX-2 ratio” value at COX-2 amounted to 42.

As for `CS(=O)(=O)c1ccc(/C(=C2\CCOC2=O)c2ccc(Cl)cc2)cc1` [8 (Z isomer), (Z)-3-[1-(4-chlorophenyl)-1-(4-methanesulphonylphenyl)methylidene]dihydrofuran-2-one], the ED50 was 2.1 mg/kg in the data set on kaolin arthritis and 3.7 mg/kg with carrageenin oedema. Moreover, the mice still alive in the data set with apc/min mice (240 days, control 8/29) is given as 17/29. Further, in the data set with apc/min mice (240 days, control 16.3 tumors), the average tumor burden is 11.9 tumors per mouse. Moreover, in the data set on apc/min mice (after 240 days), the “viability compared to control” value is given as “outliving their control counterparts”. Further, in data set [1], the TD50 at 6 h was > 1000 mg/kg. Further, the IC50 against COX-2 came out at 182 ± 25 nM; against COX-1 it was 172 ± 22.2 µM. For the same compound, the “Selectivity COX-1/COX-2 ratio” value on COX-2 is given as 944.

Consider `CS(=O)(=O)c1ccc(/C(=C2\CCOC2=O)c2ccc(F)cc2)cc1` [4 (E isomer), (E)-3-[1-(4-fluorophenyl)-1-(4-methanesulphonylphenyl)methylidene]dihydrofuran-2-one], for which the ED50 was 7.6 mg/kg with kaolin arthritis and 1.8 mg/kg with carrageenin oedema. Further, the TD50 at 6 h in data set [1] was > 1000 mg/kg. The concentration for half-maximal inhibition (IC50) was 674 ± 46 nM at COX-2 and > 300 µM on COX-1. At COX-2, the “Selectivity COX-1/COX-2 ratio” value was > 445.

For the compound `CC1(C)C/C(=C(/c2ccc(F)cc2)c2ccc(S(C)(=O)=O)cc2)C(=O)O1` [31 (E isomer), (E)-5,5-Dimethyl-3-[1-(4-fluorophenyl)-1-(4-methanesulphonylphenyl)methylidene]dihydrofuran-2-one], the ED50 is 14.2 mg/kg in the data set on kaolin arthritis and 3.1 mg/kg in the data set on carrageenin oedema. The 50% inhibitory concentration (IC50) is 780 nM at COX-2 and > 100 µM against COX-1. Moreover, the “Selectivity COX-1/COX-2 ratio” value at COX-2 is > 128.

Turning to `NS(=O)(=O)c1ccc(/C(=C2\CCOC2=O)c2ccc(F)c(Cl)c2)cc1` [143 (Z isomer), (Z)-4-[(3-chloro-4-fluorophenyl)-(2-oxo-dihydro-furan-3-ylidene)methyl]benzenesulphonamide], the ED50 turned out to be 6.4 mg/kg with kaolin arthritis and 0.7 mg/kg in the data set on carrageenin oedema. Besides, the results for the half-inhibitory concentration (IC50) against COX-2 and against COX-1 were 73 nM and 12.7 µM, respectively. Besides, on COX-2, the “Selectivity COX-1/COX-2 ratio” value is 174.

On to `Cc1cccc(/C(=C2/CCOC2=O)c2ccc(S(C)(=O)=O)cc2)c1` [49 (Z isomer), (Z)-3-[1-(3-Methylphenyl)-1-(4-methanesulphonylphenyl)-methylidene]dihydrofuran-2-one], for which the ED50 in the data set with kaolin arthritis and in the data set with carrageenin oedema was > 30 mg/kg each time. Also, the IC50 at COX-2 was 418 nM; against COX-1 it was > 100 µM. The “Selectivity COX-1/COX-2 ratio” value at COX-2 is > 239.

Take `CS(=O)(=O)c1ccc(/C(=C2\CCOC2=O)c2cc(F)cc(F)c2)cc1` [80 (Z isomer), (Z)-3-[1-(3,5-difluorophenyl)-1-(4-methanesulphonylphenyl)methylidene]-dihydro-furan-2-one]: the values for the ED50 in the data set with kaolin arthritis and in the data set with carrageenin oedema were 5.8 mg/kg and 4.8 mg/kg, respectively. The half-inhibitory concentration (IC50) against COX-2 was 518 nM; at COX-1, > 100 µM. In addition, on COX-2, the “Selectivity COX-1/COX-2 ratio” value is listed as > 193.

As a reminder, the IC50 is the concentration that inhibits the measured activity by half. A lower IC50 goes with higher potency.
